Test results from patent US6855325B1, “Use of hypo-osmotic saline solutions and medicine based on said solutions” (Laboratoires GOEMAR S.A., priority 1999, dated 2005).
Entries after “also recorded” stand apart in the source; their conditions may differ.

Columns and labels:
interleukine IL-8 = experiment: release of interleukine IL-8 in cultures of keratinocytes under the influence of MCK medium; type: cell-based, human; conditions: 4 hours incubation; saline solutions and physiological serum without dilution, dexamethasone 10 μM in MCK; control MCK = 100
From the text: Then the ability of the hypoosmotic saline solutions used according to the invention to prevent and to limit the release under the influence of certain diseases or certain pro-inflammatory agents of the chemical mediators responsible for the starting of the cutaneous inflammatory phenomena has been examined.
The tested chemical mediator was interleukine IL-8.
The pro-inflammatory agent was consisting of the MCK culture medium which appears to be at the origin of a strong release of interleukine IL-8 in cultures of keratinocytes.
The procedure was similar to that used in the above disclosed tests concerning the estimation of the cytotoxicity of the various tested products.
These products were the same.
The duration of the incubation was also equal to 4 hours.
Under the influence of the MCK medium, the release of interleukine IL-8 was 100 pg/mg of proteins; in that same medium determination has been carried out of the amounts of interleukine IL-8 released in the presence of the six tested products, i.e. on the one hand, the products J, I, H, K as well as physiological serum which were used without dilution and, on the other hand, dexamethasone which has been used at the rate of 10 μM in the MCK medium.

[1] = tested on: normal human epidermic keratinocytes; experiment: cytotoxic effect: percentage of proteins remaining in keratinocytes after 4 hours of incubation; type: cell-based; conditions: 4 hours incubation
Procedure: For the examination of the toxicity, normal human epidermic keratinocytes were used which were taken from epidermis samples; they consist especially in keratinocytes isolated from the remains of an operation of an abdominal plasty carried out on a person (patient No. 10020).
These keratinocytes were cultivated at 37° C. in a culture medium intended for keratinocytes or MCK, i.e. the one which is marketed under the designation “SFM defined-keratinocyte medium” by the company GIBCO under a humid atmosphere containing 5% of CO2 until confluence of the monolayers.
These six products were incubated during 4 hours in the cultures of the keratinocytes.
Before the incubation, the cells, i.e. the keratinocytes, were rinsed with the tested products in order to eliminate any trace of culture medium.
The saline solutions J, I, H, and K and the physiological serum were used without dilution.
The dexamethasone has been tested at 10 μM in the medium MCK.
The cultures of keratinocytes were incubated in the presence of the six products during 4 hours at 37° C., under a humid atmosphere containing 5% of CO2.
The control cultures, incubated in the medium MCK in the absence of the six products, were carried out in parallel.
All these trials were carried out three times. […]

In the case of `C[C@@H]1C[C@H]2[C@@H]3CCC4=CC(=O)C=C[C@]4(C)[C@@]3(F)[C@@H](O)C[C@]2(C)[C@@]1(O)C(=O)CO` [Dexamethasone, dexamethasone], the “amounts of interleukine IL-8 released” value (interleukine IL-8) is reported as 74 pg of IL-8/mg of proteins and the “cytotoxic effect with respect to keratinocytes (in words)” value [1] is reported as “not cytotoxic; also recorded: very few cytotoxic”.
